Patent US12060360B2, “Lysyl oxidase inhibitors” (The Institute of Cancer Research: Royal Cancer Hospital, priority 2017, dated 2024)

What was measured:
LOX = target: T1, LOX (Mus musculus, UniProt P28301); test: LOX activity in cysts assay (LOX-roGFP2 biosensor, MDCK cysts); type: cell-based; settings: MDCK cysts, roGFP2 ratio at basal surface; read-out: LOX biosensor IC50 (cyst)
T1 construct: Full length LOX cDNA was then PCR cloned into pEGFP-N1 (Clonetech), or biosensor vector proGFP2-N1; expressed in transfected cells; host or cells: MDCK cells grown as cysts on Matrigel, G418-selected
T1 sequence (P28301 163-411): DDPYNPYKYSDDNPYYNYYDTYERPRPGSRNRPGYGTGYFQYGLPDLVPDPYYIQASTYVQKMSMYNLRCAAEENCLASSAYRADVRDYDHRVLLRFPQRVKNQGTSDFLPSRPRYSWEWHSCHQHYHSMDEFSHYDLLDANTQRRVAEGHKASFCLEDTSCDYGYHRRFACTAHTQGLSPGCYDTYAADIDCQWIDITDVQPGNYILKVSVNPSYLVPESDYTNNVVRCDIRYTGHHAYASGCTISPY
Outline: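 Live MDCK cysts grown 10 days on Matrigel and expressing mouse LOX fused to the roGFP2 redox biosensor, with inhibitors added 30 min before confocal imaging. Oxidised/reduced ratio (405/488 nm excitation, 500–530 nm emission) at the basal cyst surface taken as LOX activity. DMSO defines 0% and 1 mM BAPN 100% inhibition.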

[1] = system: PDAC TRP53R172H (p53 mut) cells (mouse pancreatic carcinoma); test: PDAC allografts, primary tumour volume T/C; type: in vivo; settings: 200 mg/kg po qd; ratio of average tumour volume treated/vehicle control; p<0.05
Method: (§1) All procedures involving animals were approved by the Animal Welfare and Ethical Review Body of the Institute of Cancer Research and Cancer Research UK Manchester Institute in accordance with National Home Office regulations under the Animals (Scientific Procedures) Act 1986 and according to the guidelines of the Committee of the National Cancer Research Institute Tumour size was determined by caliper measurements of tumour length, width and depth and volume was calculated as volume=0.5236×length×width×depth (mm).
PDAC allografts: CD1 nu/nu female mice at 6 weeks of age were inoculated subcutaneously in the right flank with 2×10^6 PDAC TRP53R172H (p53 mut) cells at 100 ul suspension per animal. In some examples, the oral dosing by metal gavage commences one day after cells inoculation, at 0.2 ml/20 g bodyweight per animal once daily for 2-4 weeks, with compound dissolved in 5.25% tween20/saline or 5% DMSO/water. In other examples, groups of 7-8 mice were assigned to treatment following stratified allocation of tumour volumes with a median size of circa 100 mm^3. […] Control animals received a similar dosage of vehicle (5.25% tween20/saline). Tumours and weights are measured twice weekly using calipers. At the end of the study the animals are culled, and samples taken, fixed or snap frozen in liquid nitrogen. Frozen samples kept at −80 degree centigrade until being analysed and the fixed samples stained according to the desired marker.
(§2) For therapeutic efficacy assessment, the ratio of average tumour volume between compound treated and vehicle control treated (T/C) is calculated. Reduction in tumour volume in the compound treated group compared to vehicle-treated control group results in T/C<1. The efficacy of LOX inhibitors described in this invention, as measured by T/C in a pancreatic cancer model, a colorectal cancer model and a breast cancer model is shown in Table 2 and is significant (p<0.05) for all the data presented.

[2] = system: MMTV-PyMT breast transgenic model primary tumour; test: MMTV-PyMT transgenic mouse breast cancer model, primary tumour T/C; type: in vivo; settings: 200 mg/kg po qd; ratio of average tumour volume treated/vehicle control; p<0.05
Method: as §1
(§3) MMTV-PyMT (Guy et al, 1992) (FVB) female mice were randomized by non-statistical methods to LOX inhibitor treatment groups from day 70 post-birth, when animals had no detectable tumour. Mice were treated daily by oral gavage with LOX inhibitor in vehicle, or daily vehicle (5% DMSO/2.5% Tween20 in water) by oral gavage. Tumour size was determined unblinded by caliper measurements of tumour length, width and depth and volume was calculated as 0.5236×length×width×depth (mm). In all experiments, mice were humanely killed and mammary tumours and lungs were collected when the primary tumours reached ethical limits or signs of ill health.
as §2

[3] = system: MMTV-PyMT breast transgenic model lung metastases; test: MMTV-PyMT transgenic mouse breast cancer model, lung metastases quantification T/C; type: in vivo; settings: 200 mg/kg po qd, treated/vehicle control, p<0.05
Method: as §3
For lung metastases quantification, all mouse tissue samples were fixed in 10% formalin (Sigma) and embedded in paraffin. Samples were sectioned and hematoxylin and eosin (H&E) stained. Samples were imaged with a Leica CN400 slide scanner. Lung metastases were manually selected using Pen tool in ImageScope. Lung metastases number was counted and area was measured using ImageScope. The investigator was blinded to the experimental groups. The ratio of average metastases surface between compound treated and vehicle control treated (TIC) is calculated. The ratio of average metastases numbers between compound treated and vehicle control treated (T/C) is also calculated. Reduction in metastases area and/or in metastatses number in the compound treated group compared to vehicle-treated control group results in T/C<1. The antimetastatic efficacy of LOX inhibitors described in this invention, as measured by T/C in a model of breast cancer metastasising to lungs is shown in Table 2 and is significant (p<0.05) for all the data presented.

SMILES: CCOc1ccc(N2C[C@H]3CN(CCCC#N)C[C@@H]2C(C)(C)C3)cc1 [Example 42, 4-((1R,5S)-6-(4-ethoxyphenyl)-9,9-dimethyl-3,6-diazabicyclo[3.2.2]nonan-3-yl)butanenitrile]
- IC50 (LOX): < 630 nM
- T/C PDAC R172H (p53 mut) (mouse pancreatic carcinoma) - primary tumour [1]: 0.44
- T/C MMT-PyMT breast transgenic model - primary tumour [2]: 0.50
- T/C MMT-PyMT breast transgenic model - metastases b) Area ([3]; lung metastases area): b) 0.013
- T/C MMT-PyMT breast transgenic model - metastases a) Count ([3]; lung metastases number): a) 0.16
